The nature of data set [1]: Trypanosoma cruzi growth suppression in host cells – NIH3T3 host cells, beta-gal luminescence, confirmation (AID 2044).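 Further: intracellular parasites grown in NIH/3T3 mouse fibroblasts as host cells; luminescent beta-galactosidase reporter signal from transgenic T. cruzi replicating inside host cells; inhibitors lower the luminescence signal.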 Type of data set: functional, cell-based.
Data set [2] in a line: NIH3T3 cell viability loss – ATP luminescence, mouse fibroblasts, counter-screen, dose response (AID 2010).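 Further: cells exposed to compound for about 90 hours before reading.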 Type of data set: functional, cell-based. A general note: A counterscreen serves to expose hits that act by an unwanted route or on another target.
In the next data set the test system is H9c2. The data set is described as follows: cells. Type of data set: functional, cell-based. To be noted: Rattus norvegicus, H9c2, Myocardium.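 Further: confirmatory concentration-response retest of ultra-high-throughput screening hits for modulation of myocardial damage; cell death induced by hydrogen peroxide oxidative stress; compound pretreatment for 60 min then peroxide exposure for 2 h; potency is for protecting the cells against peroxide damage rather than for killing them.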
A further data set addresses Cytochrome P450 2C19 (Homo sapiens, UniProt P33261). The data set is described as follows: Cytochrome panel assay with activity outcomes. Panel member name: p450-cyp2c19 Compounds with AC50 equal or less than 10 uM are considered active. Type of data set: functional.
The target of data set [3] is T1, Corticotropin-releasing factor receptor 2/Corticotropin-releasing factor-binding protein (Homo sapiens, UniProt P24387+Q13324).
T1 sequence (Q13324 whole entry): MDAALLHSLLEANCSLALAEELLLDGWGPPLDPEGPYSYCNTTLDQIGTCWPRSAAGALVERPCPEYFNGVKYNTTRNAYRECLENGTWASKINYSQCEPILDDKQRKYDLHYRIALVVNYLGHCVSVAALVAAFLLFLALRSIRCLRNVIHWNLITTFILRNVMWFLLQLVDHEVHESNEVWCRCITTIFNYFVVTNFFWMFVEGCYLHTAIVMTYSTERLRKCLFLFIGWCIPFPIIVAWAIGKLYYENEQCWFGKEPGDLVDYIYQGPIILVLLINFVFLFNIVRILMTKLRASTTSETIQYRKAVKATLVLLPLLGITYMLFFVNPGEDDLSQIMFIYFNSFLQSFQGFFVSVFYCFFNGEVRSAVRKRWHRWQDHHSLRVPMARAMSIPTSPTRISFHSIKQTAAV
T1 sequence (P24387 whole entry): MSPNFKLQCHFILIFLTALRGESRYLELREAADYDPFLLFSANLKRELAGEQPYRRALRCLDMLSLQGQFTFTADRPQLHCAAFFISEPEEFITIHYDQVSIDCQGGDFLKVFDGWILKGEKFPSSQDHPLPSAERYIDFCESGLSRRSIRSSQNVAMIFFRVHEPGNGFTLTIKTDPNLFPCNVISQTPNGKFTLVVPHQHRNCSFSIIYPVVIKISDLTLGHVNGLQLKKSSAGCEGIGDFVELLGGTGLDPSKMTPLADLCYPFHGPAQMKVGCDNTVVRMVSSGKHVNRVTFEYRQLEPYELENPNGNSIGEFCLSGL
Put plainly: activators of CRF receptor 2 with binding protein – uHTS hits, confirmation (AID 602473). To be noted: read-out: EC50_Mean. Type of data set: functional.

Another data set addresses T2, Cytochrome P450 1A2 (Homo sapiens, UniProt P05177).
T2 sequence (P05177 whole entry): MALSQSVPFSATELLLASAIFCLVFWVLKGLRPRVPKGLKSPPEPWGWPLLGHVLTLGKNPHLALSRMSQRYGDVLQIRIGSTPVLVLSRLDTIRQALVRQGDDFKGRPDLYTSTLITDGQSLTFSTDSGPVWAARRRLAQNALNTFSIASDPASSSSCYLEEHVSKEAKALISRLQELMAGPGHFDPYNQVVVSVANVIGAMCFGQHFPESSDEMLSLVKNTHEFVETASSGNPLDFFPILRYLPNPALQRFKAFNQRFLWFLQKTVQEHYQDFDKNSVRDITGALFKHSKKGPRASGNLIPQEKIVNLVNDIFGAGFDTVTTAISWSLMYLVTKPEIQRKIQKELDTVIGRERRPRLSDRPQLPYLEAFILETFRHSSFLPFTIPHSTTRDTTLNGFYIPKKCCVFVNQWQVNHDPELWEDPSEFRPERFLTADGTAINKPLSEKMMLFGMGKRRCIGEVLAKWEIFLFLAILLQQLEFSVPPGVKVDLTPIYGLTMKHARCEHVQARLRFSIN

The source made the active and inactive calls. A value given as a limit tells only on which side of the number the result lay.

Cytochrome P450 2C19, sequence (P33261 whole entry): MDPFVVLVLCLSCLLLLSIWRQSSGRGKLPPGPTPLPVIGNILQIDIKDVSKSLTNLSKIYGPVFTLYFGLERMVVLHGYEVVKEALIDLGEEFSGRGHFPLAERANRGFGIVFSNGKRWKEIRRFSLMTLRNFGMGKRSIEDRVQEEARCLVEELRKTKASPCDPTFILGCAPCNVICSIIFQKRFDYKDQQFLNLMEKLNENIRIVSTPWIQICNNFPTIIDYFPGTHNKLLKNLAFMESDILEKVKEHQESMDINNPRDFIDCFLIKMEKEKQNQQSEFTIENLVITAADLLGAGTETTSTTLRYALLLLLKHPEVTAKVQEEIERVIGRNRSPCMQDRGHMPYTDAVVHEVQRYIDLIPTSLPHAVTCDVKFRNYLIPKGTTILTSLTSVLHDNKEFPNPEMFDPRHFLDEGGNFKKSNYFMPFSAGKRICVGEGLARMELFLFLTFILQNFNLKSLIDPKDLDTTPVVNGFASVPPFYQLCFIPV

Take `CN(Cc1c[nH]c2ccccc12)C1CCCCC1`: the EC50 was 0.699 µM (active) in data set [1] and 23.9 µM (active) in data set [2].
One may read the IC50 as the concentration at which inhibition is half-maximal. `COc1ccc(NC(=O)CN(C)C(=O)Cc2nnc(O)c3ccccc23)cc1`: in the data set on H9c2, the half-maximal inhibitory concentration (IC50) is 19.6 µM (active).
On the same count and under the same terms, under `NC(=O)c1ccccc1OCC(=O)NC12CC3CC(CC(C3)C1)C2` stands 36.9 µM (inactive); under `COc1ccc(OC)c(/C=N/Nc2nncn2/N=C/c2cc(OC)ccc2OC)c1`, > 79 µM (inactive).
On the same count and under the same terms, under `O=C(Cc1nnc(O)c2ccccc12)NCc1ccccn1` stands 35.7 µM (inactive).
For `COc1ccc(NC(=O)CCCc2nc(O)c3ccccc3n2)cc1Cl`, the IC50 with H9c2 is > 79 µM (inactive).
In the case of `CC(C)(C)C(C(Oc1ccc(Cl)cc1)n1cncn1)n1nnnc1C(c1cccc(Cl)c1)N1CCCCC1` (stereo unspecified), the EC50 was 1.59 µM (active) in data set [1] and > 60 µM (not active) in data set [2].
In general, AC50 refers to the concentration giving half of the maximal activity seen. Regarding `O=c1[nH]c2c(S)nc(O)nc2n1-c1ccccc1`, the AC50 entry on Cytochrome P450 2C19 is “inconclusive”.
Take `Cc1ncc(CO)c2c1Oc1nc(-c3ccccc3)nc(SCC(=O)N3CCCCC3)c1C2`: in the data set with H9c2, the IC50 was > 79 µM (inactive).
`O=C(Nc1nc2c(s1)CCCC2)c1ccc(S(=O)(=O)N2CCCc3ccccc32)cc1`: the EC50 is 2.07 µM (active) in data set [1] and > 60 µM (inconclusive) in data set [2].
On to `Cc1ccc(C(=O)N/C(=C\c2ccc(-c3ccc([N+](=O)[O-])cc3)o2)C(=O)NC2CCS(=O)(=O)C2)cc1` (stereo unspecified), for which the EC50 in data set [3] is 8.22 µM (active).
Regarding `O=C(CN(C(=O)Cn1nnc(-c2cccs2)n1)c1cnc2ccccc2c1)NCC1CCCO1` (stereo unspecified), the IC50 in the data set with H9c2 was 75.1 µM (inactive).
As to `O=C(O)CCSCc1ccccc1`, the AC50 result at Cytochrome P450 2C19 was “inconclusive”.
For `CCOC(=O)C1CCCN(C(=O)CCCOc2cc(=O)n(C)c3ccccc23)C1` (stereo unspecified), the half-maximal activity concentration (AC50) on Cytochrome P450 1A2 was 25.1 µM (inconclusive).
For `CCCCc1nc(O)c2c3c(sc2n1)CCC3`, the IC50 with H9c2 is > 79 µM (inactive).
With `CS(=O)(=O)N1CCC[C@@]2(CCN(C(c3ccccc3)c3ccccc3)C2)C1`, the half-maximal activity concentration (AC50) on Cytochrome P450 1A2 is 25.1 µM (inconclusive); on Cytochrome P450 2C19 (read-out: AC50) it was 3.16 µM (inconclusive).
`CC(OC(=O)Cn1[nH]c(=O)c2ccccc2c1=O)C(=O)Nc1ccc(F)cc1` (stereo unspecified): the IC50 in the data set on H9c2 was > 79 µM (inactive).
For `c1csc(CNc2ccnc(-c3ccoc3)n2)c1`, the AC50 at Cytochrome P450 2C19 (read-out: AC50) is 31.6 µM (inconclusive).
`CN(C)C(=O)COC(=O)[C@H](Cc1ccccc1)NC(=O)c1ccco1`: the EC50 in data set [3] is 19.4 µM (active).
On to `COc1ccc(-c2cc(C(=O)NC(C)c3ccccn3)c3ccccc3n2)cc1OC` (stereo unspecified), for which the IC50 in the data set on H9c2 was > 79 µM (inactive).
For `CC(=O)Nc1ccc(Sc2ncccc2C(=O)Nc2ccc(OC(F)(F)F)cc2)cn1`, in data set [3], the EC50 is 2.96 µM (active).
`COc1cc(C(=O)Nc2nc(OC)c(-c3ccccc3)c(OC)n2)cc(OC)c1OC`: the IC50 with H9c2 was > 79 µM (inactive).
For `COc1ccc(NC(=O)c2cc(-c3cccnc3)nc3c(C)c(C)ccc23)c(OC)c1`, the EC50 in data set [1] was 2.69 µM (active); in data set [2], > 60 µM (not active).
Regarding `CCCCNC(=O)c1cc2c(=O)n3cccc(C)c3nc2n(Cc2ccccc2)c1=N`, the EC50 in data set [1] is 3.03 µM (active); in data set [2], > 60 µM (not active).
As to `CC(C)N(CCn1c(=S)[nH]c2ccccc2c1=O)C(C)C`, the EC50 in data set [3] is 9.1 µM (active).
`Cc1nc2ccccc2c(=O)n1-n1cnnc1`: the AC50 on Cytochrome P450 1A2 is 3.16 µM (inconclusive).
For `O=[N+]([O-])c1ccc(C[S+]([O-])Cc2ccccc2)cc1` (stereo unspecified), the AC50 at Cytochrome P450 1A2 was 3.16 µM (inconclusive).
Take `NS(=O)(=O)c1cc2c(cc1C(F)(F)F)N[C@H](Cc1ccccc1)NS2(=O)=O`: the AC50 at Cytochrome P450 1A2 is 15.8 µM (inconclusive).
For the molecule `N#Cc1ccc(-c2ccc(OCC(O)CN3CCCCC3)cc2)cc1` (stereo unspecified), the EC50 was 1.98 µM (active) in data set [1] and 12.1 µM (active) in data set [2].
Take `NC(=O)CNC(=O)[C@@H]1CC2(CC(c3ccccc3)=NO2)CN1C(=O)c1ccc(Br)cc1` (stereo partly specified): the figures for the AC50 at Cytochrome P450 1A2 and on Cytochrome P450 2C19 (read-out: AC50) were 25.1 µM (inconclusive) and 39.8 µM (inconclusive), respectively.
On to `CC(=O)N(C)c1nnc(-c2cnccn2)s1`, for which the AC50 entry on Cytochrome P450 2C19 was “inconclusive”.
Consider `CN(Cc1ccco1)c1cc(-c2cccnc2)ncn1`, for which the half-maximal activity concentration (AC50) on Cytochrome P450 2C19 (read-out: AC50) is 20 µM (inconclusive).
Take `COc1ccc(-c2nc3cnc(N4CCN(C)CC4)nc3n(C3CC3)c2=O)cc1`: the AC50 at Cytochrome P450 1A2 is 20 µM (inconclusive).
As for `N#CCCn1c(=O)c(CCc2ccccc2)nc2cnc(Oc3ccccc3)nc21`, the AC50 at Cytochrome P450 1A2 is 12.6 µM (inconclusive).
On to `CCN(CC)S(=O)(=O)c1cccc(C(=O)N/N=C/c2ccccn2)c1`, for which the IC50 in the data set on H9c2 is > 79 µM (inactive).
On to `O=C(COc1ccc(F)cc1)Nc1cc(S(=O)(=O)N2CCCCC2)ccc1N1CCCCC1`, for which the values for the EC50 in data set [1] and in data set [2] were 2.15 µM (active) and > 60 µM (not active), respectively.
Take `CC(C)=CCc1ccc(=O)c(O)cc1C(C)C`: in the data set on H9c2, the IC50 was > 79 µM (inactive).
Take `N[C@@H](Cn1cc(I)c(=O)[nH]c1=O)C(=O)O`: at Cytochrome P450 1A2, the AC50 was 39.8 µM (inconclusive).
Turning to `CCCS(=O)(=O)N1CCN(CC2CC=CCC2)CC1` (stereo unspecified), the AC50 at Cytochrome P450 1A2 is 12.6 µM (inconclusive).
Consider `CCCCCC(=O)NC(=S)NNC(=O)c1ccc([N+](=O)[O-])cc1`, for which the EC50 in data set [3] was 5.19 µM (active).
Consider `CC(C)(O)c1cn(-c2nonc2N)nn1`, for which the AC50 at Cytochrome P450 1A2 was 39.8 µM (inconclusive); at Cytochrome P450 2C19 (read-out: AC50) it was 3.16 µM (inconclusive).
In the case of `Cc1s/c(=N\C(=O)c2ccco2)n(C)c1-c1ccc(F)cc1`, the AC50 on Cytochrome P450 2C19 (read-out: AC50) is 3.55 µM (inconclusive).
Consider `C=CCN1C(=O)c2cccc3c(N4CCCCC4)ccc(c23)C1=O`, for which the EC50 in data set [3] was 5.47 µM (active).
Turning to `Cc1ccc(OC(F)F)c(NC(=O)Nc2cccc(C(F)(F)F)c2)c1`, the EC50 in data set [1] is 2.41 µM (active); in data set [2], > 60 µM (not active).
Turning to `N=C(N)N/N=C/c1ccc(Br)cc1`, the EC50 in data set [1] is 0.141 µM (active); in data set [2], 6.37 µM (active).
On to `CSc1ccc2c(c1)N(CC[C@H]1CCCCN1C)c1ccccc1S2`, for which, at Cytochrome P450 2C19 (read-out: AC50), the AC50 is 20 µM (inconclusive).
For the molecule `CCN(CC)CCNc1nc(-c2ccccc2)c2c(c1C#N)CC(C)(C)OC2`, the EC50 in data set [1] was 0.332 µM (active); in data set [2], > 60 µM (not active).
For the molecule `N#Cc1c(-c2ccc(F)cc2)cc(-c2ccccc2)nc1SCC(=O)NCC(=O)O`, the EC50 in data set [3] is 5.47 µM (active).
For `COc1cc(-c2cc(C(=O)Nc3cccc(C(C)=O)c3)c3ccccc3n2)cc(OC)c1OC`, the IC50 in the data set with H9c2 is > 79 µM (inactive).
As to `O=C(CNC(=S)N(Cc1ccccc1)Cc1cccnc1)NC1CCCCC1`, the EC50 is 0.516 µM (active) in data set [1] and 11.1 µM (active) in data set [2].
Consider `CCOc1cccc(C2C(C(=O)c3ccc(C)o3)=C(O)C(=O)N2Cc2ccncc2)c1` (stereo unspecified), for which the AC50 at Cytochrome P450 1A2 and at Cytochrome P450 2C19 (read-out: AC50) was 39.8 µM (inconclusive) in each case.
With `COc1cc(-c2cc(NC(C)=O)c3ncc(-c4ccc(F)cc4)n3c2)cc(OC)c1OC`, the IC50 in the data set on H9c2 is > 79 µM (inactive).
With `Cc1ccc(C(C(=O)NCc2ccccc2)N(Cc2cccs2)C(=O)c2ccc3c(c2)OCCO3)cc1` (stereo unspecified), in the data set on H9c2, the IC50 was > 79 µM (inactive).
For `Cc1sc2nc(SCC(=O)N3CCOCC3)nc(O)c2c1C`, in the data set with H9c2, the IC50 is > 79 µM (inactive).
For `O=C(CSc1nnc(COc2ccc(F)cc2)o1)N1c2ccccc2CCc2ccccc21`, the values for the EC50 in data set [1] and in data set [2] were 1 µM (active) and > 60 µM (not active), respectively.

For the origin of these results see ChEMBL document CHEMBL1201862, “PubChem BioAssay data set” (2004).
